In patent publication US20240175863A1, “COMPOSITIONS AND METHODS FOR MONITORING ENPP1 ACTIVITY” (The Regents of University of Californa, priority 2021, published 2024):
Like-named read-outs stand apart in the source and are kept apart here.

How the values were obtained:
cardiac fibroblasts [1] = assay: rescue of cardiac fibroblast cell death induced by ENPP1+ATP myocyte conditioned medium (substance added to fibroblasts); format: cell-based, mouse; conditions: for cell death of cardiac fibroblasts treated with ENPP1+ATP myocyte conditioned medium in presence of the substance: substance added to cardiac fibroblasts
Source text: Unable to readily identity the pro-apoptotic metabolites, the studies sought alternative physiologic principles of approaching the problem. The data has consistently shown that the ENPP1+ATP myocyte conditioned medium caused death of a wide range of non-myocyte cells, but that myocytes themselves are not affected. This could be possibly secondary to a specific receptor that is present in non-myocytes and not in myocytes. However, as non-myocyte cells of different lineages are affected, it was hypothesized that the ability of myocytes to be immune to the conditioned medium likely reflects an inherent cellular property of myocytes that distinguishes itself from that in non-myocyte cells tested by us. As non-myocytes are proliferative and myocytes are non-proliferative, it was hypothesized that the ability to cycle was making the non-myocytes susceptible to the metabolites secreted by the myocyte. To determine whether this was true, the studies harvested primary cardiac fibroblasts and induced cell cycle arrest of freshly harvested cardiac fibroblasts by irradiating them.
It also provided an obvious explanation as to why non-proliferative myocytes are immune to the effects of the metabolite(s). A nucleotide balance between the content of purines and pyrimidines available to cycling cells is critical to avoid genotoxic stress and maintain genomic stability. It was hypothesized that disruption of the nucleotide biosynthetic pathways in non-myocyte cells and an imbalance of purine versus pyrimidine nucleotides was inducing genotoxic stress and initiating a DNA damage response in proliferating non-myocytes. The studies treated cardiac fibroblasts with ENPP1+ATP myocyte conditioned medium for 24 hours and measured the content of nucleoside monophosphate and nucleoside triphosphates in treated cardiac fibroblasts by LC/MS-MS. […] To determine whether this is true, the studies attempted to rescue cell death of cardiac fibroblasts by adding uridine or deoxycytidine to the ENPP1+ATP myocyte conditioned medium. Cardiac fibroblasts were treated with the ENPP1+ATP myocyte conditioned medium but uridine or deoxycytidine or both were added to the cardiac fibroblasts at the time of addition of ENPP1+ATP myocyte conditioned medium (FIG. 5C). […] Deoxycytidine serves as a precursor of dCTP synthesis via the enzyme deoxycytidine kinase.
Pyrimidine biosynthesis occurs via a sequence of well-regulated steps (FIG. 5H), where carbamoyl phosphate is converted to carbamoyl aspartate and then to dihydroorotate. Dihydroorotate dehydrogenase (DHODH) then converts dihydroorotate to the pyrimidine orotate. In the presence of phosphoribosyl pyrophosphate (PRPP), orotate is converted by phosphoribosyl transferase activity of UMP synthase to orotidine monophosphate (OMP) and then decarboxylated by OMP decarboxylase activity of UMP synthase to uridine monophosphate (UMP). To determine which steps in pyrimidine biosynthesis are affected in cycling non-myocytes, the studies treated cardiac fibroblasts with ENPP1+ATP myocyte conditioned medium and 24 hours later harvested the cells and subjected the cardiac fibroblasts to mass spectrometry to determine metabolites in the pyrimidine biosynthesis pathway. […] As orotate levels were increased but orotidine levels decreased in cardiac fibroblasts treated with ENPP1+ATP myocyte conditioned medium, it was hypothesized that inhibition was occurring at the OMP synthesis step from orotate and PRPP (orotate phosphoribosyl transferase). […]

cardiac fibroblasts [2] = assay: myocyte conditioned medium transferred to cardiac fibroblasts, cell death (substance added to cardiomyocytes); format: cell-based, mouse; conditions: for cardiac fibroblast cell death by conditioned medium of cardiomyocytes treated with AMP plus inhibitor: inhibitor added to cardiomyocytes at the time of addition of AMP; for cardiac fibroblast cell death by conditioned medium of cardiomyocytes treated with the substance alone: conditioned medium collected after 24 hours
cardiac fibroblasts [3] = assay: direct treatment of cardiac fibroblasts with metabolites or inhibitors, cell death and rescue; format: cell-based, mouse
[4] = test system: C57BL/6 animals subjected to ischemic cardiac injury
[5] = test system: ENPP1 over-expressing cardiac fibroblasts; assay: co-culture of ENPP1 over-expressing cardiac fibroblasts with rodent ventricular cardiomyocytes plus ATP; format: cell-based, mouse
[6] = test system: gamma H2A.X and p53Ser15 phosphorylation in non-myocyte cells; assay: immunostaining of DNA damage response in non-myocyte cells of injured hearts; format: in vivo, mouse; conditions: hearts of myricetin treated animals
pyrimidine biosynthesis = assay: metabolomic analysis of hearts and serum after cardiac injury; format: in vivo, mouse
ENPP1 = molecular target: T1, ENPP1 (UniProt P22413); assay: cell free luciferase based luminescent assay for ENPP1 inhibitors; format: biochemical
T1 sequence (P22413 1-925): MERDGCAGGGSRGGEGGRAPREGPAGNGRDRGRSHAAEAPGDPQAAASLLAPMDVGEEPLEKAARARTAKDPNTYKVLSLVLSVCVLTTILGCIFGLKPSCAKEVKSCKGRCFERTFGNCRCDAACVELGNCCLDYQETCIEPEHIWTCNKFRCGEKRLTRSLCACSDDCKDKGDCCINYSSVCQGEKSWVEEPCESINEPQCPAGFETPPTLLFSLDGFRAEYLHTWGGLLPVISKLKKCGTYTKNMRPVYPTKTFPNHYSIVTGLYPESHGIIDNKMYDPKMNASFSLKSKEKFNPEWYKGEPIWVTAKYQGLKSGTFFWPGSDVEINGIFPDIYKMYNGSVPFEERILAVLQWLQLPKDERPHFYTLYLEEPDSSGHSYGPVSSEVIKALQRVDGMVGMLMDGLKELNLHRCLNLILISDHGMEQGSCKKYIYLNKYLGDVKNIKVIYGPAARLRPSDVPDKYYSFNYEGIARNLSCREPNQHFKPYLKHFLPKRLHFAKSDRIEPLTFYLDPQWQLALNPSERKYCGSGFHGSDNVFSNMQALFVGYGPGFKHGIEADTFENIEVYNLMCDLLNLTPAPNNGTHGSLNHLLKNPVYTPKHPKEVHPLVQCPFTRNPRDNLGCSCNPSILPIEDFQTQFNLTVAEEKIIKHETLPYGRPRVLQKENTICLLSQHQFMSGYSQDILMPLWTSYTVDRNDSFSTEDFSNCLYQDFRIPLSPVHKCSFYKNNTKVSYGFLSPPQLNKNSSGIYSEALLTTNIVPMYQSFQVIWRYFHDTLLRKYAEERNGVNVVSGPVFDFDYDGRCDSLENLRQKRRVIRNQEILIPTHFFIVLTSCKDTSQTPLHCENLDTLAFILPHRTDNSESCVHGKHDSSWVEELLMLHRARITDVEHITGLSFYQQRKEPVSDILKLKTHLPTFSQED

[7] = test system: primary mouse embryonic fibroblasts (mEF); assay: mouse embryonic fibroblasts treated with ENPP1+ATP myocyte conditioned medium, cell death; format: cell-based
[8] = uridine continuous infusion for 14 days
[9] = uridine continuous infusion for 14 days, day 7 after injury, mean±S.E.M., n=15
[10] = myricetin versus vehicle treated injured hearts
[11] = myricetin versus vehicle, day 3
[12] = 30 mg/kg myricetin intra-peritoneally daily for 14 days
[13] = 30 mg/kg myricetin intra-peritoneally daily for 14 days, day 7 after injury, n=15

## Nc1ccn([C@H]2C[C@H](O)[C@@H](CO)O2)c(=O)n1 [deoxycytidine]
Cardiac fibroblasts [1]
  cell death of cardiac fibroblasts treated with ENPP1+ATP myocyte conditioned medium in presence of the substance: completely rescued cell death

## Nc1ncnc2nc(-c3ccc(N4CCOCC4)nc3)cc(-c3cccc(Br)c3)c12 [ABT-702]
Cardiac fibroblasts [2]
  cardiac fibroblast cell death by conditioned medium of cardiomyocytes treated with AMP plus inhibitor: attenuated cell death

## O=P(O)(O)OP(=O)(O)O [PPi, pyrophosphate]
Cardiac fibroblasts [2]
  cardiac fibroblast cell death by conditioned medium of cardiomyocytes treated with the substance alone: not

## Nc1ncnc2c1ncn2[C@@H]1O[C@H](COP(=O)(O)CP(=O)(O)O)[C@@H](O)[C@H]1O [AMP-CP]
Cardiac fibroblasts [2]
  cardiac fibroblast cell death by conditioned medium of cardiomyocytes treated with AMP plus inhibitor: significantly increases cardiac fibroblast cell death

## Nc1ncnc2nc[nH]c12 [adenine, Adenine]
Cardiac fibroblasts [3]
  cell death of cardiac fibroblasts after removal of the compound from the set of 7 compounds: no cell death
  cell death of cardiac fibroblasts treated directly with the substance(s): no cell death was observed

## O=c1ccn([C@@H]2O[C@H](CO)[C@@H](O)[C@H]2O)c(=O)[nH]1 [uridine, Uridine]
Cardiac fibroblasts [3]
  cell death of cardiac fibroblasts treated with adenine and adenosine plus the substance: rescue of cell death
  cell death of cardiac fibroblasts treated with brequinar plus uridine: rescue
  cell death of cardiac fibroblasts treated with the 7 compounds together with uridine: cell death was prevented
[4]; [8]
  animals with severe post infarct fibrosis (>40% of LV surface area): none
  fraction of animals with severe depression in EF (less than 20%): 13%
[4]; uridine continuous infusion for 14 days, versus vehicle
  end systolic ventricular diameters: trend towards better preservation
[4]; [9]
  ejection fraction (EF): 37.02±3.12%
  fractional shortening (FS): 18.01±1.68%
[4]; uridine, versus vehicle
  heart weight/body weight ratios: decreased
[4]; uridine, 4 weeks following injury
  capillary density: significantly increased
[4]; uridine, 4 weeks post injury, versus vehicle
  fibrosis measured at the apex and mid ventricle: decreased fibrosis
Cardiac fibroblasts [1]
  cell death of cardiac fibroblasts treated with ENPP1+ATP myocyte conditioned medium in presence of the substance: completely rescued cell death

## Nc1ncnc2c1ncn2[C@@H]1O[C@H](COP(=O)(O)OP(=O)(O)OP(=O)(O)O)[C@@H](O)[C@H]1O [ATP]
[5]; ATP added to co-culture with neonatal rat ventricular cardiomyocytes, within 48 hours
  reduction in the number of ENPP1 over-expressing cardiac fibroblasts: 75%

## Nc1ncnc2c1ncn2[C@@H]1O[C@H](CO)[C@@H](O)[C@H]1O [adenosine, Adenosine]
Cardiac fibroblasts [2]
  cardiac fibroblast cell death by conditioned medium of cardiomyocytes treated with the substance alone: unable to induce cell death

## Nc1ncnc2c1ncn2[C@@H]1O[C@H](COP(=O)(O)O)[C@@H](O)[C@H]1O [AMP, Adenosine monophosphate]
Cardiac fibroblasts [3]
  cell death of cardiac fibroblasts treated directly with the substance(s): did not induce cell death
Cardiac fibroblasts [2]
  cardiac fibroblast cell death by conditioned medium of cardiomyocytes treated with the substance alone: caused cell death

## C[C@H](Nc1cc(Cl)nc2c1cnn2[C@@H]1O[C@H](COP(=O)(O)CP(=O)(O)O)[C@@H](O)[C@H]1O)c1ccccc1F [AB680]
Cardiac fibroblasts [2]
  cardiac fibroblast cell death by conditioned medium of cardiomyocytes treated with AMP plus inhibitor: significantly increases cardiac fibroblast cell death

## COc1ccc(-c2nc([C@@H](C)Sc3nc(N)cc(N)n3)c(C)s2)cc1OCCN1CCOCC1 [DI-87]
Cardiac fibroblasts [1]
  rescue by deoxycytidine of ENPP1+ATP conditioned medium induced cell death in presence of deoxycytidine kinase inhibitor: unable to prevent cell death

## O=C(O)c1cc(=O)[nH]c(=O)n1[C@@H]1O[C@H](COP(=O)(O)O)[C@@H](O)[C@H]1O [OMP, orotidine monophosphate]
Cardiac fibroblasts [3]
  cell death of cardiac fibroblasts treated with adenine and adenosine plus the substance: rescue of cell death
Cardiac fibroblasts [1]
  cell death of cardiac fibroblasts treated with ENPP1+ATP myocyte conditioned medium in presence of the substance: completely rescued cell death

## CCNC(=O)[C@H]1O[C@@H](n2cnc3c(N)ncnc32)[C@H](O)[C@@H]1O [NECA]
Cardiac fibroblasts [2]
  cardiac fibroblast cell death by conditioned medium of cardiomyocytes treated with the substance alone: did not cause fibroblast cell death

## O=c1c(O)c(-c2cc(O)c(O)c(O)c2)oc2cc(O)cc(O)c12 [myricetin]
[6]
  p53Ser15 phosphorylation in non-myocyte cells: attenuated
[6]; 7 days following injury
  expression of gamma H2A.X in non-myocyte cells: attenuated expression
[5]; concomitant addition of myricetin (10 uM)
  cell death of cardiac fibroblasts in co-culture after addition of ATP: significantly attenuated cell death
Pyrimidine biosynthesis; myricetin versus vehicle injected animals (FIG. 8K legend)
  carbamoyl aspartate in the hearts: decreased
Pyrimidine biosynthesis; [10]
  carbamoyl phosphate levels in the injured regions of the heart: decrease
  level of cytidine in the injured regions of the heart: significant increase
  level of uridine in the injured regions of the heart: significant increase
Pyrimidine biosynthesis; [11]
  deoxyuridine in serum: increased
  orotate in serum: decrease
Pyrimidine biosynthesis; myricetin versus vehicle, day 7
  orotidine in serum: increased
[4]; [12]
  fraction of animals with severe fibrosis (>40% of the LV surface area): 15%
  fraction of animals with severe heart failure (EF<20%): 23%
[4]; [13]
  LVIDs (ventricular chamber size): 3.68±0.23
  ejection fraction: 38.04±3.74%
  fractional shortening: 18.67±2.05%
[4]; mouse, in vivo
  body weight: without any change
[4]; myricetin, versus vehicle
  capillary density: significant increase
  ventricular hypertrophy: decreased
[4]; myricetin, 4 weeks post injury, versus vehicle
  area of scarring at the mid ventricular and apical regions: significantly reduced
ENPP1
  inhibition of ENPP1 enzymatic activity: ~99%
Cardiac fibroblasts [2]
  cardiac fibroblast cell death with conditioned medium of cardiomyocytes treated with ENPP1+ATP plus substance, versus ENPP1+ATP conditioned medium: significant reduction in cell death

## CO[C@@]12[C@H](COC(N)=O)C3=C(C(=O)C(C)=C(N)C3=O)N1C[C@@H]1N[C@@H]12 [mitomycin C]
[7]
  cell death of mEF treated with ENPP1+ATP myocyte conditioned medium after cell cycle arrest: prevented cell death
Cardiac fibroblasts [1]
  cell death of cardiac fibroblasts treated with ENPP1+ATP myocyte conditioned medium in presence of the substance: resistant to cell death

## Cc1c(-c2ccc(-c3ccccc3F)cc2)nc2ccc(F)cc2c1C(=O)O [brequinar]
Cardiac fibroblasts [3]
  cell death of cardiac fibroblasts treated directly with the substance(s): cardiac fibroblast cell death
